# Earlier results, collected in PMC8201753 (ACS Medicinal Chemistry Letters, 2021).
# Test system: ERα-dependent cells
# Details: cited from earlier work
smiles,measurement,value
"C=CC(C)(C)OC[C@H]1O[C@H](O[C@@H]2C3=C([C@H](C)COC(C)=O)C[C@H](O)[C@]3(C)/C=C3/[C@@H](COC)CC[C@H]3[C@@H](C)[C@H]2O)[C@H](O)[C@@H](OC(C)=O)[C@@H]1O [FC-A, fusicoccin-A]",Growth of ERα-dependent cells,blocks growth
